Source: patent US20250170224A1, “METHODS AND COMPOSITIONS FOR TREATING MICROGLIAL DYSFUNCTION AND IMPROVING METABOLIC DYSFUNCTION” (Ultimate Medicine AG, priority 2021, published 2025)
Entries after “also recorded” stand apart in the source; their conditions may differ.

Key:
microglia = format: in vivo
Method: Mice of the aged group in the nontargeted metabolomics analysis were 17-18 months old. Except for nontargeted metabolomics and microbiota profiling, where only male mice were used, all groups included mice from both sexes. Mice were housed under a 12-hour light/12-hour dark cycle and temperatures of 18-23° C. with 40-60% humidity, with food and water given ad libitum. To avoid cage effects, mice from at least three different cages per experimental group were analyzed. […] For modulation of CML in aged animals, 18-month-old SPF housed C57BL/6 mice were treated orally every third day for 10 weeks with vehicle (20% hydroxypropyl-p-cyclodextrin in 1× phosphate-buffered saline (PBS)), 10 mg kg^−1 ellagic acid (EA) or 3,000 U kg^−1 intestinal alkaline phosphatase (IAP). To assess in vivo intestinal permeability, tracer fluorescein isothiocyanate (FITC)-labeled dextran (4 kDa: Sigma-Aldrich) was used. Briefly, mice were deprived of food 4 hours before and both food and water 4 hours after oral gavage using 200 μl of 80 mg ml^−1 FITC-dextran. Blood was collected retro-orbitally after 4 hours and fluorescence intensity was measured on fluorescence plates using an excitation wavelength of 493 nm and an emission wavelength of 518 nm. To assess in vivo intestinal permeability to CML, mice were treated with […] CML (0.36 mM). Blood was collected retro-orbitally immediately before and 4 hours after treatment. CML translocated into the circulation was measured by liquid chromatography-mass spectrometry (LC-MS). All animal experiments were approved by the local administration in Germany (Regierungsprasidium Freiburg) and were performed in accordance with the respective national, federal, and institutional regulations and the guidelines of the Federation of European Laboratory Animal Science Associations.
Mice were lethally anesthetized with ketamine (100 mg kg^−1 body weight) and xylazine (10 mg kg^−1 body weight) followed by perfusion with 1×PBS through the left heart chamber. For histology, brains were kept overnight in 4% paraformaldehyde (PFA). For flow cytometry and magnetic-activated cell sorting (MACS) beads cell sorting, brains were dissected, homogenized and filtered through a […] mesh. […] Myelin was removed from the top layer and the cell pellet was washed once with 1×PBS followed by antibody staining.
Brain specimens from the cortex were first fixed overnight in 3% glutaraldehyde at 4° C., washed with Sorensen buffer, and then transferred to 1% osmium tetroxide for 2 hours at room temperature. Next, samples were dehydrated by a graded series of ethanol (30-100%) followed by 100% propylene oxide, resin/propylene oxide (1:2 (v/v)) and resin/propylene oxide (2:1 (v/v)). Samples were embedded in resin via polymerization for 24 hours at 75° C. Then, 700-nm semithin sections were cut and stained with 2% toluidine blue to define the region of interest for further preparation of 70 nm ultrathin sections using an ultramicrotome (Leica Reichert Ultracut S) after contrasting the sections with uranyl acetate and lead citrate (Leica Reichert Ultrastainer). To assess the mitochondrial phenotype in microglia, images were acquired with a ×7,900 or ×46,000 magnification using a CM100 electron microscope (Philips).
Cell sorting for RT-qPCR and RNA sequencing (RNA-seq) was performed on a MoFlo Astrios (Beckman Coulter; FIG. 7a). Before surface staining, dead cells were excluded by using the Fixable Viability Dye eFluor 780 (1:1,000 dilution; Thermo Fisher Scientific) followed by incubation with Fc receptor blocking antibody CD16/CD32 (1:200 dilution, clone 2.4G2; BD Bioscience). […] To assess microglial cellular reactive oxidative species (ROS), the CellROX DeepRed Reagent ([…]; Thermo Fisher Scientific) was used. To assess mitochondrial activity, Tetramethylrhodamine, Methyl Ester, Perchlorate (50 nM; Thermo Fisher Scientific) and MitoTracker Green FM (20 nM; Thermo Fisher Scientific) were used.

[1] = tested on: bone marrow-derived macrophages (BMDMs); assay: Bone marrow derived macrophages incubated with increasing concentrations of CML for 48 hours; format: cell-based, murine; settings: in vitro, increasing concentrations of CML (0.1 pM, 1 pM, 10 pM, 100 pM, 1 mM)
Method: Cells were cultured at 37° C. and 5% CO2 in a humidified incubator. Murine BMDMs were differentiated from tibial and femoral bone marrow aspirates. Recombinant murine macrophage colony-stimulating factor (Immunotools) was used at 20 ng ml^−1. After 7 days of differentiation, BMDMs were seeded in 24-well plates with 5×10^5 cells per well in triplicates. The medium was switched to serum-free medium 6 hours before the experiment. Cells were incubated with increasing concentrations of CML (untreated, 0.1 pM, 1 pM, 10 pM, 100 pM, 1 mM) for 48 hours, then collected for measurements.
Cell sorting for RT-qPCR and RNA sequencing (RNA-seq) was performed on a MoFlo Astrios (Beckman Coulter; FIG. 7a). Before surface staining, dead cells were excluded by using the Fixable Viability Dye eFluor 780 (1:1,000 dilution; Thermo Fisher Scientific) followed by incubation with Fc receptor blocking antibody CD16/CD32 (1:200 dilution, clone 2.4G2; BD Bioscience). The following antibodies were used for surface staining: anti-CD45 (1:200 dilution, clone 30-F11; Thermo Fisher Scientific); anti-CD11b (1:200 dilution, clone MI/70; Thermo Fisher Scientific). The following lineage antibodies were used (all at 1:300 dilution): anti-CD3 (clone 17A2; BioLegend); anti-CD19 (clone 6D5; BioLegend); anti-CD45R (clone RA3-6B2; BD Biosciences); Ly6C (clone AL-21; BD Biosciences); Ly6G (clone 1A8; BD Biosciences). […]

[2] = young-adult mice, i.p. once per day for two weeks

Q: With `N[C@@H](CCCCNCC(=O)O)C(=O)O` [CML, N^6-carboxymethyllysine] as the compound, how does the “brain CML concentrations after intraperitoneal injection of CML” value (microglia; young-adult SPF mice, targeted metabolomics) read?
A: increased brain CML concentrations

Q: And the “damage to mitochondrial structures in microglia (electron microscopy)” value (microglia; young-adult mice treated with CML i.p.)?
A: caused mitochondrial dysfunction by directly inflicting damage to mitochondrial structures

Q: What about the “microglial gene expression (RNA-seq) after intraperitoneal injection” value (microglia; young-adult mice, CML versus vehicle) of the same compound?
A: upregulated the expression of the ROS-related genes S100a9 and S100A8; also recorded: upregulated the expression of the ROS-related genes, S100a9 and S100A8

Q: And the “cellular ATP stores in microglia” value (microglia; [2])?
A: reduced cellular ATP stores

Q: And the “metabolic function (metabolic/mitochondrial activity) of microglia” value (microglia; [2])?
A: decreased metabolic activity

Q: And the “recapitulation of the changes found in the microglia of aged mice” value (microglia; [2])?
A: partially recapitulate the changes found in the microglia of aged mice

Q: What about the “intracellular ROS production / oxidative stress in microglia” value (microglia; young-adult mice, i.p. once per day for two weeks, CellROX) of the same compound?
A: increased oxidative stress

Q: And the “metabolic activity (mitochondrial activity) in BMDMs” value [1]?
A: decreased metabolic activity

Q: And the “oxidative stress (cellular ROS) in BMDMs” value [1]?
A: dose-dependent increase in oxidative stress
